Converted amounts (≈) assume the structure as drawn.

The subject of assay [1] is Plasmodium falciparum. The assay is described as follows: Antimalarial activity against Plasmodium falciparum 3D7A asexual forms assessed as inhibition of [G-3H]hypoxanthine uptake incubated for 24 hrs followed by [G-3H]hypoxanthine addition and measured after 18 hrs by liquid scintillation spectrometry. Format: functional, organism-based.
Assay [2] deals with Plasmodium falciparum. The assay is described as follows: Antimalarial activity against chloroquine-sensitive Plasmodium falciparum F32(CQS)Tanzania incubated for 48 hrs by classical radioactive microdilution method. Format: functional, organism-based. For orientation: Broth dilution looks for growth in wells or tubes with falling amounts of substance.
Assay [3] relates to Plasmodium vivax. The assay is described as follows: Antimalarial activity against Plasmodium vivax infected in human blood incubated for 24 to 36 hrs. Format: functional, organism-based.
In assay [4] the test system is Plasmodium falciparum. The assay is described as follows: Antimalarial activity against chloroquine-sensitive Plasmodium falciparum 3D7 infected in human red blood cells incubated for 48 hrs by [3H]-hypoxanthine incorporation assay. Format: functional, organism-based, RBC. Particulars: 3D7, Erythrocyte.
Assay [5] deals with Plasmodium falciparum. The assay is described as follows: Antimalarial activity against chloroquine-sensitive Plasmodium falciparum 3D7 by SyBR Green method.
Assay [6] has as its system Plasmodium falciparum. The assay is described as follows: Antimalarial activity against Plasmodium falciparum 3D7 asexual forms incubated for 72 hrs by luminescence method. Format: functional, organism-based. To be noted: 3D7, 72 h.
In assay [7] the test system is Plasmodium falciparum. Briefly: Antimalarial activity against chloroquine-resistant Plasmodium falciparum Dd2. Format: functional, organism-based.
Assay [8] relates to Plasmodium falciparum. The assay is described as follows: Antimalarial activity against ring stage Plasmodium falciparum 3D7 measured for 72 hrs by absorbance method. Format: functional, organism-based. To be noted: 3D7, 72 h.
For assay [9], the system named is Plasmodium falciparum. Briefly: Antimalarial activity against trophozoite stage Plasmodium falciparum 3D7 harboring NLuc infected in human erythrocytes assessed as inhibition of new permeability pathway by measuring infected erythrocytes sensitivity to sorbitol-mediated lysis by luminescence method. Format: functional, organism-based. To be noted: 3D7, Erythrocyte.

Assay [10] can be described thus: Inhibition of Plasmodium falciparum DHODH expressed in Escherichia coli BL21(DE3) using L-dihydroorotate as substrate measured every 90 secs for 45 mins by absorbance method.
Assay [11] deals with Plasmodium vivax. The assay is described as follows: Antimalarial activity against Plasmodium vivax infected in human blood incubated for 40 to 44 hrs. Format: functional, organism-based.
A further assay concerns the target T1, Falcipain 2 (Plasmodium falciparum, UniProt Q9N6S8).
T1 sequence (Q9N6S8 whole entry): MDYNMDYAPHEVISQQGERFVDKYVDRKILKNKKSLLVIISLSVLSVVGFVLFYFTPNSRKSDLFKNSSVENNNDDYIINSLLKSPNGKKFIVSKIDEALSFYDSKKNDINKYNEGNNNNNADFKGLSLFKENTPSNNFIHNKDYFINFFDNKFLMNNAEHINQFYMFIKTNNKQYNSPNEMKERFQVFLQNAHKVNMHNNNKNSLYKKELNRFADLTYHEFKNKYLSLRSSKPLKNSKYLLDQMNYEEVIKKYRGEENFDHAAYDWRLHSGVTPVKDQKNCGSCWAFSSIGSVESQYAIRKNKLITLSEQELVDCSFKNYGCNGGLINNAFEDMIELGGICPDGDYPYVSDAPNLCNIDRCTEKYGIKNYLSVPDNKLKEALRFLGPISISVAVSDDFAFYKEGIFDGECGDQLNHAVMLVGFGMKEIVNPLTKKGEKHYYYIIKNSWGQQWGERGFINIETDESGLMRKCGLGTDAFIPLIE
The assay is described as follows: Inhibition of Plasmodium falciparum FP-2.

Assay [12] is described as follows: Inhibition of Plasmodium falciparum DHFR.
The subject of assay [13] is Plasmodium falciparum. Briefly: Antimalarial activity against multi-resistant Plasmodium falciparum infected in human erythrocytes assessed as inhibition of [G-3H]hypoxanthine uptake incubated for 42 hrs by liquid scintillation counting method. Format: functional, organism-based. To be noted: Erythrocyte.
For assay [14], the system named is Plasmodium falciparum. Briefly: Antimalarial activity against Plasmodium falciparum infected in human erythrocytes assessed as inhibition of [G-3H]hypoxanthine uptake incubated for 42 hrs by liquid scintillation spectrometry. Format: functional, organism-based. To be noted: Erythrocyte.
The subject of assay [15] is Plasmodium falciparum. The assay is described as follows: Antimalarial activity against chloroquine-resistant Plasmodium falciparum T996 infected in human erythrocytes assessed as inhibition of [G-3H]hypoxanthine uptake preincubated for 24 hrs followed by [G-3H]hypoxanthine addition and measured after 18 to 24 hrs by scintillation spectrometry. Format: functional, organism-based. To be noted: T996, Erythrocyte.

Assay [16] deals with Plasmodium falciparum. Briefly: Antimalarial activity against chloroquine-resistant Plasmodium falciparum K1 infected in human erythrocytes assessed as inhibition of [G-3H]hypoxanthine uptake preincubated for 24 hrs followed by [G-3H]hypoxanthine addition and measured after 18 to 24 hrs by scintillation spectrometry. Format: functional, organism-based. Particulars: K1, Erythrocyte.

A further assay relates to Hemozoin. The assay is described as follows: Inhibition of beta-hematin assessed as heme alkylation at 2 molar equivalents incubated for 30 mins by HPLC analysis relative to control. Details: scale not given: the % may be the effect or the level left.

As to `COc1cc(NC(C)CCCN)c2ncccc2c1` (centres undefined) [PRIMAQUINE], the IC50 in the assay on Plasmodium falciparum [1] is greater than 10000 nM.
Take `C[C@@H]1CC[C@H]2[C@@H](C)C(=O)O[C@@H]3O[C@@]4(C)CC[C@@H]1[C@]32OO4` [ARTEMISININ]: in the assay on Plasmodium falciparum [2], the IC50 was found to be 7 nM.
Molecule `Nc1ccc(S(=O)(=O)c2ccc(N)cc2)cc1` [DAPSONE] yielded an IC50 in the assay on Plasmodium vivax [3] of 1620 nM.
`C[C@@H]1CC[C@H]2[C@@H](C)C(OCCN(CCCNc3ccnc4cc(Cl)ccc34)CCOC3O[C@@H]4O[C@@]5(C)CC[C@H]6[C@H](C)CC[C@@H]([C@H]3C)[C@@]46OO5)O[C@@H]3O[C@@]4(C)CC[C@@H]1[C@]32OO4` (some centres undefined) had an IC50 with Plasmodium falciparum [4] of 8.7 nM.
In the assay on Plasmodium falciparum [5], `C[C@H]1[C@H](OC(=O)CCC(=O)O)O[C@@H]2O[C@@]3(C)CC[C@H]4[C@H](C)CC[C@@H]1[C@@]24OO3` [ARTESUNATE] came in with an IC50 of 2 nM.
Consider `CCc1nc(N)nc(N)c1-c1ccc(Cl)cc1` [PYRIMETHAMINE], for which the IC50 in the assay with Plasmodium falciparum [6] is 4.35 nM; in the assay with Plasmodium falciparum [7], greater than 10000 nM.
Molecule `C[C@@H]1CC[C@H]2[C@@H](C)C(OCCN3CC[N+](CCNc4ccnc5cc(Cl)ccc45)(CCOC4O[C@@H]5O[C@@]6(C)CC[C@H]7[C@H](C)CC[C@@H]([C@H]4C)[C@@]57OO6)CC3)O[C@@H]3O[C@@]4(C)CC[C@@H]1[C@]32OO4` (some centres undefined) showed an IC50 in the assay with Plasmodium falciparum [4] of 29.5 nM.
Turning to `COc1cccc(NC(=O)CSc2nc(-c3ccccc3Cl)ns2)c1`, the EC50 with Plasmodium falciparum [8] came out at 2480 nM; in the assay with Plasmodium falciparum [9], 367 nM; in assay [10], 158000 nM.
Molecule `COc1ncnc(NS(=O)(=O)c2ccc(N)cc2)c1OC` [SULFADOXINE] had an IC50 with Plasmodium vivax [11] of 0.01 µg/mL (≈ 0.0322 µM).
Regarding `Nc1ncc(NCc2ccc(CCNC(=O)c3ccc(F)cc3)cc2)c(N)n1`, the IC50 on Falcipain 2 amounted to 6800 nM; in the assay on Plasmodium falciparum [7], 1100 nM; in assay [12] it was 8800 nM.
For the molecule `C[C@H]1c2cccc(O)c2C(=O)C2=C(O)[C@]3(O)C(=O)C(C(N)=O)=C(O)[C@@H](N(C)C)[C@@H]3[C@@H](O)[C@@H]21` [DOXYCYCLINE], in the assay on Plasmodium falciparum [13], the IC50 came to 5100 nM.
On to `Clc1ccc2c(N3CCN(CCCN4CCN(c5ccnc6cc(Cl)ccc56)CC4)CC3)ccnc2c1` [PIPERAQUINE], for which, in the assay with Plasmodium falciparum [14], the IC50 came to 81.3 nM.
For `CCCCN(CCCC)CC(O)c1cc(Cl)cc2c1-c1ccc(Cl)cc1/C2=C/c1ccc(Cl)cc1` (centres undefined) [LUMEFANTRINE], in the assay on Plasmodium falciparum [1], the IC50 turned out to be 3.2 nM.
In the case of `CCN(CCO)CCCC(C)Nc1ccnc2cc(Cl)ccc12` (centres undefined) [HYDROXYCHLOROQUINE], the IC50 worked out at 21.5 nM in the assay with Plasmodium falciparum [15] and 2220 nM in the assay on Plasmodium falciparum [16].
With `CC(C)C1=C[C@H]2OC3(CCC(NCCNc4ccnc5cc(Cl)ccc45)CC3)OO[C@@]2(C)CC1` (some centres undefined), the Activity in the assay on Hemozoin stood at 60%.
Consider `O=C(Nc1ccc(-c2cn3ccsc3n2)cc1)c1ccc(S(=O)(=O)N2CCCCCC2)cc1`, for which the EC50 in the assay with Plasmodium falciparum [9] is 222 nM; in [10], greater than 250000 nM.
Consider `C=C[C@H]1CN2CC[C@H]1C[C@H]2[C@H](O)c1ccnc2ccc(OC)cc12` [QUININE], for which the IC50 with Plasmodium falciparum [1] was 66 nM.

Usually IC50 stands for the concentration that inhibits the measured activity by half. The EC50 is the concentration that produces a half-maximal response.

Values taken from ChEMBL document CHEMBL4680146, “Current progress in antimalarial pharmacotherapy and multi-target drug discovery” (Eur J Med Chem, 2020).
